Assay results published in patent US12396461B2, “Functional peptides having antimicrobial activity against phytopathogenic microorganisms” (TOYOTA JIDOSHA KABUSHIKI KAISHA, priority 2019, dated 2025).
Where two headings read alike, the source gives them in different places.

Legend:
Format in all cases: cell-based
[1] = test system: Colletotrichum destructivum; design: key to Plate antimicrobial activity test Colletotrichum destructivum, level: a case where hyphae extended to the entire well and no antimicrobial activity was found is defined as “level 0,”; a case where hyphae extended to less than a half of the well and thus the peptide inhibited the growth of the hyphae is defined as “level 1,”; a case where ungerminated spores were present and the peptide partially inhibited the germination is defined as “level 2,”; a case where all spores were ungerminated and the peptide completely inhibited the germination is defined as “level 3.”; details: 25° C. for 1 day or 2 days, microscopic observation
Botrytis cinerea = test system: Botrytis cinerea; design: key to Plate antimicrobial activity test Botrytis cinerea, level: a case where hyphae extended to the entire well and no antimicrobial activity was found is defined as “level 0,”; a case where hyphae extended to less than a half of the well and thus the peptide inhibited the growth of the hyphae is defined as “level 1,”; a case where ungerminated spores were present and the peptide partially inhibited the germination is defined as “level 2,”; a case where all spores were ungerminated and the peptide completely inhibited the germination is defined as “level 3.”; details: 25° C. for 1 day or 2 days, microscopic observation
Pyricularia oryzae = test system: Pyricularia oryzae; design: key to Plate antimicrobial activity test Pyricularia oryzae, level: a case where hyphae extended to the entire well and no antimicrobial activity was found is defined as “level 0,”; a case where hyphae extended to less than a half of the well and thus the peptide inhibited the growth of the hyphae is defined as “level 1,”; a case where ungerminated spores were present and the peptide partially inhibited the germination is defined as “level 2,”; a case where all spores were ungerminated and the peptide completely inhibited the germination is defined as “level 3.”; details: 25° C. for 1 day or 2 days, microscopic observation
Fusarium oxysporum = test system: Fusarium oxysporum; design: key to Plate antimicrobial activity test Fusarium oxysporum, level: a case where hyphae extended to the entire well and no antimicrobial activity was found is defined as “level 0,”; a case where hyphae extended to less than a half of the well and thus the peptide inhibited the growth of the hyphae is defined as “level 1,”; a case where ungerminated spores were present and the peptide partially inhibited the germination is defined as “level 2,”; a case where all spores were ungerminated and the peptide completely inhibited the germination is defined as “level 3.”
[2] = test system: Colletotrichum orbiculare; design: key to Plate antimicrobial activity test Colletotrichum orbiculare, level: a case where hyphae extended to the entire well and no antimicrobial activity was found is defined as “level 0,”; a case where hyphae extended to less than a half of the well and thus the peptide inhibited the growth of the hyphae is defined as “level 1,”; a case where ungerminated spores were present and the peptide partially inhibited the germination is defined as “level 2,”; a case where all spores were ungerminated and the peptide completely inhibited the germination is defined as “level 3.”; details: 25° C. for 1 day or 2 days, microscopic observation

Substance | Plate antimicrobial activity test Colletotrichum destructivum, level ([1]; peptide 1 μM) | Plate antimicrobial activity test Colletotrichum destructivum, level ([1]; peptide 10 μM) | Plate antimicrobial activity test Colletotrichum destructivum, level ([1]; peptide 100 μM) | Plate antimicrobial activity test Botrytis cinerea, level (Botrytis cinerea; peptide 1 μM) | Plate antimicrobial activity test Botrytis cinerea, level (Botrytis cinerea; peptide 10 μM) | Plate antimicrobial activity test Botrytis cinerea, level (Botrytis cinerea; peptide 100 μM) | Plate antimicrobial activity test Pyricularia oryzae, level (Pyricularia oryzae; peptide 1 μM) | Plate antimicrobial activity test Pyricularia oryzae, level (Pyricularia oryzae; peptide 10 μM) | Plate antimicrobial activity test Pyricularia oryzae, level (Pyricularia oryzae; peptide 100 μM) | Plate antimicrobial activity test Fusarium oxysporum, level (Fusarium oxysporum) | Plate antimicrobial activity test Colletotrichum orbiculare, level ([2]; peptide 1 μM) | Plate antimicrobial activity test Colletotrichum orbiculare, level ([2]; peptide 10 μM) | Plate antimicrobial activity test Colletotrichum orbiculare, level ([2]; peptide 100 μM)
TKVKNKKV (listed as Solanum lycopersicum) [TsORF6-1-8aa-9, partial peptide of TsORF6-1, 8 amino acid residues] | 0 | 0 | 0 | 0 | 0 | 0 | 0 | 0 | 0 | 0 | 0 | 0 | 0
EELMVVAEEEAYRRVRGGMGW (listed as Solanum lycopersicum) [TsORF6-3, chemically synthesized region of TsORF6] | 0 | 0 | 0 | 0 | 0 | 0 | 0 | 0 | 0 | 0 | 0 | 0 | 0
VKTKV (listed as Solanum lycopersicum) [TsORF6-1-5aa-7, partial peptide of TsORF6-1, 5 amino acid residues] | 0 | 0 | 0 | 0 | 0 | 0 | 0 | 0 | 0 | 0 | 0 | 0 | 0
KNKKV (listed as Solanum lycopersicum) [TsORF6-1-5aa-12, partial peptide of TsORF6-1, 5 amino acid residues] | 0 | 0 | 0 | 0 | 0 | 0 | 0 | 0 | 0 | 0 | 0 | 0 | 0
KTKVKNKK (listed as Solanum lycopersicum) [TsORF6-1-8aa-8, partial peptide of TsORF6-1, 8 amino acid residues] | 0 | 0 | 0 | 0 | 0 | 1 | 0 | 0 | 0 | 0 | 0 | 0 | 0
VVKTKVKN (listed as Solanum lycopersicum) [TsORF6-1-8aa-6, partial peptide of TsORF6-1, 8 amino acid residues] | 0 | 0 | 0 | 0 | 0 | 0 | 0 | 0 | 0 | 0 | 0 | 0 | 0
IVVKT (listed as Solanum lycopersicum) [TsORF6-1-5aa-5, partial peptide of TsORF6-1, 5 amino acid residues] | 0 | 0 | 0 | 0 | 0 | 0 | 0 | 0 | 0 | 0 | 0 | 0 | 0
KVKNKKVA (listed as Solanum lycopersicum) [TsORF6-1-8aa-10, partial peptide of TsORF6-1, 8 amino acid residues] | 0 | 0 | 0 | 0 | 0 | 0 | 0 | 0 | 0 | 0 | 0 | 0 | 0
